What was measured:
Assay type in all cases: in vivo
[1] = tested on: growth factors and anti-inflammatory proteins; test: Expression of growth factors and anti-inflammatory proteins in dogs given supplemental arginine; details: dietary supplementation
[2] = tested on: transient cerebral ischemia in an ovariectomized rat model; test: Transient middle cerebral artery (tMCA) occlusion, ischemic lesion (infarct) volume by TTC staining; details: all rats, vs control diet, 60 min tMCA occlusion, 24 h reperfusion (FIG. 1)
Method: Animals. Female Charles Rivers Sprague-Dawley rats (250 g, Wilmington, Mass.) were acclimatized to animal facilities three days prior to surgery with a 12 hour light-dark cycle. Bilateral ovariectomy was performed 2 weeks before diet feeding began. Four weeks after the start of diet feeding, transient middle cerebral artery (tMCA) occlusion under anesthesia was performed following intraperitoneal (i.p.) injection of ketamine (60 mg/kg) and xylazine (10 mg/kg).
Diet and Hormone Administration. Fourteen to 15 rats per group were randomly assigned to one of five treatment groups. These groups were as follows: […]
All diets were fed ad libitum to the rats for four weeks. […] Also once per week, body weights and food intake were determined. […]
Middle cerebral artery occlusion and samples preparation. […] Rectal temperature was monitored and maintained between 36.5 and 37° C. with a heating pad throughout the procedure. […]
Some animals were eliminated from the study during the protocol. The number of animals quantified for lesion volume ranged from 12 to 15 per group.
Statistical methods. Results were analyzed with one-way analysis of variance (ANOVA) using Prism software(Graphpad Inc; San Diego, Calif.). The significance of differences among groups was determined by one-way ANOVA followed by Tukey's multiple comparison tests. All values were expressed as mean±SEM.

[3] = tested on: transient cerebral ischemia in an ovariectomized rat model; test: Cerebral ischemia-induced apoptosis, DNA fragmentation by TUNEL staining after tMCA occlusion; details: mean of three brain regions, normalized to DAPI cell count, vs control diet (FIG. 3)

Structure (SMILES)	expression of growth factors and anti-inflammatory proteins [1]	effect on infarct size / mean infarct volume [2]	reduction of infarct volume ([2]; diets fed 4 weeks, E2 implant 1 week) [%]	TUNEL staining / TUNEL-positive cell counts [3]
N=C(N)NCCC[C@H](N)C(=O)O [arginine, L-arginine]	increased expression of multiple growth factors and anti-inflammatory proteins in a dose-dependent manner	–	–	–
C[C@]12CC[C@@H]3c4ccc(O)cc4CC[C@H]3[C@@H]1CC[C@@H]2O [Estradiol, 17β-estradiol]	–	reduced infarct size	68	substantial reduction in TUNEL staining
